ChEMBL document CHEMBL3885861, “Open TG-GATES”

Organism: Rattus norvegicus
Assay: Open TG-GATES - Regimen: Daily Repeat
Format: toxicity, organism-based, Sprague-Dawley
Set-up: regimen Daily Repeat, gender Male, age 6 weeks
Conditions: in vivo, po, 300 mg/kg, route gavage, dose level Middle; for APTT / Bas / Eos / Fbg / Hb / Ht / Lym / MCH / MCHC / MCV / Mono / Neu / PT / Plat / RBC / Ret / WBC: tissue Blood; for KIDNEY_L / KIDNEY_R / KIDNEY_TOTAL: tissue Kidney; for LIVER: tissue Liver; for A/G / ALP / ALT / AST / BUN / CRE / Ca / Cl / DBIL / GLC / IP / K / LDH / Na / PL / RALB / TBIL / TC / TG / TP / gamma-GTP: tissue Plasma

CNC(=C[N+](=O)[O-])NCCSCc1ccc(CN(C)C)o1 [RANITIDINE]
TERMINAL_BW (72 h, time 3 day): 231.7 g
APTT (72 h, time 3 day): 20.3 s
Bas (72 h, time 3 day): 0%
Eos (72 h, time 3 day): 1%
Fbg (72 h, time 3 day): 234.4 mg/dL
Hb (72 h, time 3 day): 13.5 g/dL
Ht (72 h, time 3 day): 39.4%
Lym (72 h, time 3 day): 78.8%
MCH (72 h, time 3 day): 21.9 pg
MCHC (72 h, time 3 day): 34.3%
MCV (72 h, time 3 day): 63.8 fL
Mono (72 h, time 3 day): 3.2%
Neu (72 h, time 3 day): 15.8%
PT (72 h, time 3 day): 12.4 s
Plat (72 h, time 3 day): 118.4 x10_4/uL
RBC (72 h, time 3 day): 616.4 x10_4/ul
Ret (72 h, time 3 day): 5.1%
WBC (72 h, time 3 day): 112.2 x10_2/uL
KIDNEY_L (72 h, time 3 day): 1 g
KIDNEY_R (72 h, time 3 day): 1 g
KIDNEY_TOTAL (72 h, time 3 day): 2 g
LIVER (72 h, time 3 day): 11.1 g
A/G (72 h, time 3 day): 1.6
ALP (72 h, time 3 day): 966.2 IU/L
ALT (72 h, time 3 day): 43.4 IU/L
AST (72 h, time 3 day): 80 IU/L
BUN (72 h, time 3 day): 14.8 mg/dL
CRE (72 h, time 3 day): 0.4 mg/dL
Ca (72 h, time 3 day): 10.9 mg/dL
Cl (72 h, time 3 day): 104 meq/L
DBIL (72 h, time 3 day): 0.09 mg/dL
GLC (72 h, time 3 day): 196.6 mg/dL
IP (72 h, time 3 day): 7.2 mg/dL
K (72 h, time 3 day): 4.2 meq/L
LDH (72 h, time 3 day): 195.6 IU/L
Na (72 h, time 3 day): 141.2 meq/L
PL (72 h, time 3 day): 142.8 mg/dL
RALB (72 h, time 3 day): 3.4 g/dL
TBIL (72 h, time 3 day): 0.1 mg/dL
TC (72 h, time 3 day): 78.4 mg/dL
TG (72 h, time 3 day): 80 mg/dL
TP (72 h, time 3 day): 5.5 g/dL
gamma-GTP (72 h, time 3 day): 1.8 IU/L
TERMINAL_BW ([…], time 7 day): 260.6 g
TERMINAL_BW ([…], time 14 day): 309.4 g
TERMINAL_BW ([…], time 28 day): 391.7 g
APTT ([…], time 7 day): 20.6 s
Bas ([…], time 7 day): 0%
Eos ([…], time 7 day): 1%
Fbg ([…], time 7 day): 227.4 mg/dL
Hb ([…], time 7 day): 14.1 g/dL
Ht ([…], time 7 day): 39.9%
Lym ([…], time 7 day): 83.6%
MCH ([…], time 7 day): 22 pg
MCHC ([…], time 7 day): 35.5%
MCV ([…], time 7 day): 62 fL
Mono ([…], time 7 day): 1.6%
Neu ([…], time 7 day): 12.4%
PT ([…], time 7 day): 12.4 s
Plat ([…], time 7 day): 130.4 x10_4/uL
RBC ([…], time 7 day): 644.2 x10_4/ul
Ret ([…], time 7 day): 4.8%
WBC ([…], time 7 day): 81.6 x10_2/uL
APTT ([…], time 14 day): 19.1 s
Bas ([…], time 14 day): 0%
Eos ([…], time 14 day): 0.8%
Fbg ([…], time 14 day): 239.2 mg/dL
Hb ([…], time 14 day): 14.6 g/dL
Ht ([…], time 14 day): 40.6%
Lym ([…], time 14 day): 76.8%
MCH ([…], time 14 day): 21.3 pg
MCHC ([…], time 14 day): 36%
MCV ([…], time 14 day): 59.2 fL
Mono ([…], time 14 day): 2.4%
Neu ([…], time 14 day): 18.4%
PT ([…], time 14 day): 12.1 s
Plat ([…], time 14 day): 117.4 x10_4/uL
RBC ([…], time 14 day): 687.2 x10_4/ul
Ret ([…], time 14 day): 3.9%
WBC ([…], time 14 day): 111.2 x10_2/uL
APTT ([…], time 28 day): 21 s
Bas ([…], time 28 day): 0%
Eos ([…], time 28 day): 1.2%
Fbg ([…], time 28 day): 216.2 mg/dL
Hb ([…], time 28 day): 15.3 g/dL
Ht ([…], time 28 day): 43.2%
Lym ([…], time 28 day): 81.4%
MCH ([…], time 28 day): 20.5 pg
MCHC ([…], time 28 day): 35.4%
MCV ([…], time 28 day): 58.1 fL
Mono ([…], time 28 day): 1.8%
Neu ([…], time 28 day): 14%
PT ([…], time 28 day): 12.3 s
Plat ([…], time 28 day): 110 x10_4/uL
RBC ([…], time 28 day): 747 x10_4/ul
Ret ([…], time 28 day): 2.2%
WBC ([…], time 28 day): 117.7 x10_2/uL
KIDNEY_L ([…], time 7 day): 1.1 g
KIDNEY_R ([…], time 7 day): 1.1 g
KIDNEY_TOTAL ([…], time 7 day): 2.2 g
KIDNEY_L ([…], time 14 day): 1.2 g
KIDNEY_R ([…], time 14 day): 1.2 g
KIDNEY_TOTAL ([…], time 14 day): 2.4 g
KIDNEY_L ([…], time 28 day): 1.4 g
KIDNEY_R ([…], time 28 day): 1.5 g
KIDNEY_TOTAL ([…], time 28 day): 2.9 g
LIVER ([…], time 7 day): 11.7 g
LIVER ([…], time 14 day): 13.8 g
LIVER ([…], time 28 day): 16.3 g
A/G ([…], time 7 day): 1.5
ALP ([…], time 7 day): 802.2 IU/L
ALT ([…], time 7 day): 33.2 IU/L
AST ([…], time 7 day): 61.4 IU/L
BUN ([…], time 7 day): 14.6 mg/dL
CRE ([…], time 7 day): 0.4 mg/dL
Ca ([…], time 7 day): 10.6 mg/dL
Cl ([…], time 7 day): 103.8 meq/L
DBIL ([…], time 7 day): 0.084 mg/dL
GLC ([…], time 7 day): 211.6 mg/dL
IP ([…], time 7 day): 7.5 mg/dL
K ([…], time 7 day): 3.8 meq/L
LDH ([…], time 7 day): 159.2 IU/L
Na ([…], time 7 day): 141 meq/L
PL ([…], time 7 day): 138.2 mg/dL
RALB ([…], time 7 day): 3.4 g/dL
TBIL ([…], time 7 day): 0.1 mg/dL
TC ([…], time 7 day): 72.8 mg/dL
TG ([…], time 7 day): 83 mg/dL
TP ([…], time 7 day): 5.7 g/dL
gamma-GTP ([…], time 7 day): 1.4 IU/L
A/G ([…], time 14 day): 1.4
ALP ([…], time 14 day): 849.4 IU/L
ALT ([…], time 14 day): 36.4 IU/L
AST ([…], time 14 day): 70.4 IU/L
BUN ([…], time 14 day): 17.4 mg/dL
CRE ([…], time 14 day): 0.5 mg/dL
Ca ([…], time 14 day): 10.6 mg/dL
Cl ([…], time 14 day): 103.6 meq/L
DBIL ([…], time 14 day): 0.098 mg/dL
GLC ([…], time 14 day): 203.8 mg/dL
IP ([…], time 14 day): 7.1 mg/dL
K ([…], time 14 day): 4 meq/L
LDH ([…], time 14 day): 228.8 IU/L
Na ([…], time 14 day): 142.2 meq/L
PL ([…], time 14 day): 151.6 mg/dL
RALB ([…], time 14 day): 3.5 g/dL
TBIL ([…], time 14 day): 0.2 mg/dL
TC ([…], time 14 day): 68.6 mg/dL
TG ([…], time 14 day): 142.4 mg/dL
TP ([…], time 14 day): 6 g/dL
gamma-GTP ([…], time 14 day): 1 IU/L
A/G ([…], time 28 day): 1.3
ALP ([…], time 28 day): 642.2 IU/L
ALT ([…], time 28 day): 34.6 IU/L
AST ([…], time 28 day): 60.2 IU/L
BUN ([…], time 28 day): 18 mg/dL
CRE ([…], time 28 day): 0.5 mg/dL
Ca ([…], time 28 day): 10.5 mg/dL
Cl ([…], time 28 day): 102.8 meq/L
DBIL ([…], time 28 day): 0.1 mg/dL
GLC ([…], time 28 day): 200 mg/dL
IP ([…], time 28 day): 6.9 mg/dL
K ([…], time 28 day): 3.6 meq/L
LDH ([…], time 28 day): 112 IU/L
Na ([…], time 28 day): 141.2 meq/L
PL ([…], time 28 day): 138.4 mg/dL
RALB ([…], time 28 day): 3.4 g/dL
TBIL ([…], time 28 day): 0.2 mg/dL
TC ([…], time 28 day): 64.6 mg/dL
TG ([…], time 28 day): 125.6 mg/dL
TP ([…], time 28 day): 6.1 g/dL
gamma-GTP ([…], time 28 day): 1 IU/L
